Assay results taken from ChEMBL document CHEMBL1201862, “PubChem BioAssay data set” (2004).
Active and inactive are the calls of the source.

Key:
[1] = viability loss in THP-1 monocytes – THP-1 cells, cytotoxicity control for Vif-APOBEC3G degradation inhibitor project, dose response (AID 1117359); format: functional; conditions: THP-1
[2] = molecular target: T1, Estrogen receptor (Homo sapiens, UniProt P03372);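 further: potency for inhibiting coactivator peptide recruitment to the receptor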
T1 sequence (P03372 whole entry): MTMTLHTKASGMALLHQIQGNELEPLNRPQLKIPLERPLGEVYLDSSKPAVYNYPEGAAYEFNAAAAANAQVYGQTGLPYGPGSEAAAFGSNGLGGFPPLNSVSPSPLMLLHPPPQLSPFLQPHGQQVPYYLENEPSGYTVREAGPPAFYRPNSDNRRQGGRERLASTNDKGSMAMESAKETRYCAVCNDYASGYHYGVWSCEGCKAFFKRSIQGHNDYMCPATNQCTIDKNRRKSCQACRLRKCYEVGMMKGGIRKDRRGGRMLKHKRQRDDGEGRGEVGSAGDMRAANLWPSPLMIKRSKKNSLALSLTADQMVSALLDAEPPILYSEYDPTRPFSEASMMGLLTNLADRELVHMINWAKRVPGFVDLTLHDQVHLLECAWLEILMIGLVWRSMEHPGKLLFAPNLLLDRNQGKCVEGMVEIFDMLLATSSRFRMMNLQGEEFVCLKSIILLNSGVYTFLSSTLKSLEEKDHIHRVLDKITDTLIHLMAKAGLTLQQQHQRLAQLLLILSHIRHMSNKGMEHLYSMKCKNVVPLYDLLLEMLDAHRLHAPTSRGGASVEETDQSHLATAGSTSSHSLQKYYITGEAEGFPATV

[3] = HIV-1 Vif–A3G interaction blockers – biochemical, TR-FRET, GST-Vif 1-94, biotin-A3G peptide, dose response retest, primary screen (AID 1117319); format: functional;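 further: TR-FRET signal of purified GST-Vif binding a biotinylated A3G peptide; inhibitors lower the FRET signal by blocking Vif and A3G binding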
[4] = molecular target: Estrogen receptor beta (Homo sapiens, UniProt Q92731);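 further: recombinant ER-beta bound to coactivator SRC1 peptide in presence of estradiol agonist; inhibitors block coactivator peptide binding and lower the FRET signal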
[5] = molecular target: Prothrombin (Bos taurus, UniProt P00735); experiment: thrombin protease inhibitors – biochemical, fluorescence polarization, uHTS hits, dose response (AID 602369); format: functional
[6] = molecular target: 72 kDa type IV collagenase (Homo sapiens, UniProt P08253); experiment: Dose Response validation of uHTS RPN11 inhibitor hits using a MMP-2 Fluorescence assay.; format: functional
[7] = molecular target: T2, Voltage-gated N-type calcium channel alpha-1B subunit/Amyloid beta A4 precursor protein-binding family A member 1 (Homo sapiens, UniProt Q00975+Q02410); format: protein assay
[8] = molecular target: T2, Voltage-gated N-type calcium channel alpha-1B subunit/Amyloid beta A4 precursor protein-binding family A member 1; format: protein assay; remark: listed apart in the source
[9] = molecular target: Cytochrome P450 2C19 (Homo sapiens, UniProt P33261); experiment: Cytochrome panel assay with activity outcomes. Panel member name: p450-cyp2c19 Compounds with AC50 equal or less than 10 uM are considered active; format: functional; conditions: read-out: AC50
[10] = molecular target: T3, Fibrinogen beta chain (Homo sapiens, UniProt P02675); experiment: Fluorescence polarization-based biochemical high throughput dose response assay to identify inhibitors that disrupt the binding of a cyclic peptide (Tn7) to the fibrin proteolytic product D-Dimer and fragment E complex [DD(E )].
[11] = molecular target: 26S proteasome non-ATPase regulatory subunit 14 (Homo sapiens, UniProt O00487); experiment: inhibition of proteasome subunit RPN11 – biochemical, fluorescence polarization, uHTS hits, confirmation (AID 602368); format: functional
[12] = molecular target: T3, Fibrinogen beta chain; experiment: Fluorescence polarization-based biochemical high throughput dose response assay to identify inhibitors that disrupt the binding of a cyclic peptide (Tn6) to the fibrin proteolytic product D-Dimer and fragment E complex [DD(E )].
[13] = molecular target: Cytochrome P450 3A4 (Homo sapiens, UniProt P08684);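 further: CYP3A4 tested as one member of a cytochrome P450 panel screen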
[14] = viability loss in Vero cells – cytotoxicity control for Vif-APOBEC3G degradation inhibitor project, dose response (AID 1117358); format: functional; conditions: Vero
[15] = NIH3T3 cell viability loss – ATP luminescence, mouse fibroblasts, counter-screen, dose response (AID 2010); format: functional, cell-based;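 further: cells exposed to compound for about 90 hours before reading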
[16] = Trypanosoma cruzi growth suppression in host cells – NIH3T3 host cells, beta-gal luminescence, confirmation (AID 2044); format: functional, cell-based;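 further: intracellular parasites grown in NIH/3T3 mouse fibroblasts as host cells; luminescent beta-galactosidase reporter signal from transgenic T. cruzi replicating inside host cells; inhibitors lower the luminescence signal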
[17] = cytotoxicity toward HT-29 cells – cell-based, CellTiter-Glo luminescence, IC50, dose response (AID 1117330); format: functional
[18] = CellTiter-Glo luminescence survival assay, SW480 colon tumor line, concentration-response curve, half-maximal inhibitory concentration (AID 1117338); format: functional
[19] = Reduced DLD-1 viability, concentration-response, CellTiter-Glo luminescence (AID 1117352); format: functional
[20] = SNU-C1 cell viability reduction, dose response, CellTiter-Glo luminescence (AID 1117323); format: functional, cell-based
[21] = HCT116 cell viability decrease, GSK3B pretreatment – CellTiter-Glo, IC50, dose response (AID 1117339); format: functional; conditions: HCT-116
[22] = RKO cell viability reduction, dose response, CellTiter-Glo luminescence (AID 1117322); format: functional
[23] = cytotoxicity toward Colo320 cells – cell-based, CellTiter-Glo luminescence, IC50, dose response (AID 1117334); format: functional; conditions: COLO 320
[24] = cytotoxicity toward HCT116 cells – cell-based, CellTiter-Glo luminescence, IC50, dose response (AID 1117332); format: functional; conditions: HCT-116

T2 sequence (Q00975 whole entry): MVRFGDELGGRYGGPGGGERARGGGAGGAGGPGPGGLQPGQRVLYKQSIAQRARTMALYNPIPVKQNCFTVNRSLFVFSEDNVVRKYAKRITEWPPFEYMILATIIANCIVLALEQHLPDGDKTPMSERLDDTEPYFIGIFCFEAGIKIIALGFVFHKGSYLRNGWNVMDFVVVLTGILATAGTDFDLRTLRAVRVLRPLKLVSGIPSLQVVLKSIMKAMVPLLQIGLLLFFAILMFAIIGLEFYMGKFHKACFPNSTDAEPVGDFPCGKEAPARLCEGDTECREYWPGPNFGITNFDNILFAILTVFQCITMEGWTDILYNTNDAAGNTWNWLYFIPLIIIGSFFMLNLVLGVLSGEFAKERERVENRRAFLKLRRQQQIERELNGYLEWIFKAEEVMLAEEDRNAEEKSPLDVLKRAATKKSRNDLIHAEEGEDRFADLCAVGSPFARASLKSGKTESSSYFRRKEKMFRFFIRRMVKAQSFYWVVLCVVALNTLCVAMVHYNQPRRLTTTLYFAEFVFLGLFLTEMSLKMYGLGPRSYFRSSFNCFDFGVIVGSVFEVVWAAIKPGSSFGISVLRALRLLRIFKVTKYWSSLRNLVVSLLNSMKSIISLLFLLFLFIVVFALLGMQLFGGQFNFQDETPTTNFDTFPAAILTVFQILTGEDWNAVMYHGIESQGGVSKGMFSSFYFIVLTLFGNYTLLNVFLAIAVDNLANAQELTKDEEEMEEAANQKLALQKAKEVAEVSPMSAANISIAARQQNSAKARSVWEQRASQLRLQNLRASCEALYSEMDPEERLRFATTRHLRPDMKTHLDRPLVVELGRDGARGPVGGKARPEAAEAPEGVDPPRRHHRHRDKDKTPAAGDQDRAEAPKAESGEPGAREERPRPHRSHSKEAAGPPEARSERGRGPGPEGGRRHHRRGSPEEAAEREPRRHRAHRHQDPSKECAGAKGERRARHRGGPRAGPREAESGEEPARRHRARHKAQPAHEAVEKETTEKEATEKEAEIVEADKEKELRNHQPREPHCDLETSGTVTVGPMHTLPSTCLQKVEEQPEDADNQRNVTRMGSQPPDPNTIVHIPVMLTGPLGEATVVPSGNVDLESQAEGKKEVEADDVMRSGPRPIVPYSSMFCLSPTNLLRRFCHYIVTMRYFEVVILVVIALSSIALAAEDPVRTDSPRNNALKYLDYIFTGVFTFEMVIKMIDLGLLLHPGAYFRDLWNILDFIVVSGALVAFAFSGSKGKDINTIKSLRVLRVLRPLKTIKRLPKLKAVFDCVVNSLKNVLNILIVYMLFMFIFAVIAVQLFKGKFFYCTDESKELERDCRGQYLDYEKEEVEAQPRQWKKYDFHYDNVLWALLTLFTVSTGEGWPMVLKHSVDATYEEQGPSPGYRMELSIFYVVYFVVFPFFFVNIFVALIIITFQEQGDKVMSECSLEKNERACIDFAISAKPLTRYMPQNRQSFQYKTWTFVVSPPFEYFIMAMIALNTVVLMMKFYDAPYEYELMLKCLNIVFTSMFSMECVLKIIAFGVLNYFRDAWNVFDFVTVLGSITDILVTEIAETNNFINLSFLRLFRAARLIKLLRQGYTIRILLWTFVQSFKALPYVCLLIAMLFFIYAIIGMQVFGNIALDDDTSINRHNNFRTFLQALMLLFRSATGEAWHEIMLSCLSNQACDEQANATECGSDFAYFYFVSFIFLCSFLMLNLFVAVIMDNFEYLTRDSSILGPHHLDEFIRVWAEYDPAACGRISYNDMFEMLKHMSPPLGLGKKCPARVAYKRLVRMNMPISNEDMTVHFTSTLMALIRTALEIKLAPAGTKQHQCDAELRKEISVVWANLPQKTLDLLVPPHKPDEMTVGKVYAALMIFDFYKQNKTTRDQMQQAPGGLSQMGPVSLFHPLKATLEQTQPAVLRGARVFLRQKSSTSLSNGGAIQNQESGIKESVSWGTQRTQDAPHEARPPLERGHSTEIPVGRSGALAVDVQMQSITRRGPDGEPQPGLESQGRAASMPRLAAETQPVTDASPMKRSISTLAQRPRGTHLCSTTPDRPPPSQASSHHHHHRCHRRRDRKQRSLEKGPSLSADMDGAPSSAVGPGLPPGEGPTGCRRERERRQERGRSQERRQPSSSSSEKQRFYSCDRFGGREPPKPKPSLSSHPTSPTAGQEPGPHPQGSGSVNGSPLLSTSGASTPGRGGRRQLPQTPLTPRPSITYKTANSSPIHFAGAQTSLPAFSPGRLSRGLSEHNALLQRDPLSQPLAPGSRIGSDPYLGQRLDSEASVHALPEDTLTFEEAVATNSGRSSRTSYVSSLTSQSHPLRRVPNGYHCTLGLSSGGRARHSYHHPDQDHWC
T2 sequence (Q02410 whole entry): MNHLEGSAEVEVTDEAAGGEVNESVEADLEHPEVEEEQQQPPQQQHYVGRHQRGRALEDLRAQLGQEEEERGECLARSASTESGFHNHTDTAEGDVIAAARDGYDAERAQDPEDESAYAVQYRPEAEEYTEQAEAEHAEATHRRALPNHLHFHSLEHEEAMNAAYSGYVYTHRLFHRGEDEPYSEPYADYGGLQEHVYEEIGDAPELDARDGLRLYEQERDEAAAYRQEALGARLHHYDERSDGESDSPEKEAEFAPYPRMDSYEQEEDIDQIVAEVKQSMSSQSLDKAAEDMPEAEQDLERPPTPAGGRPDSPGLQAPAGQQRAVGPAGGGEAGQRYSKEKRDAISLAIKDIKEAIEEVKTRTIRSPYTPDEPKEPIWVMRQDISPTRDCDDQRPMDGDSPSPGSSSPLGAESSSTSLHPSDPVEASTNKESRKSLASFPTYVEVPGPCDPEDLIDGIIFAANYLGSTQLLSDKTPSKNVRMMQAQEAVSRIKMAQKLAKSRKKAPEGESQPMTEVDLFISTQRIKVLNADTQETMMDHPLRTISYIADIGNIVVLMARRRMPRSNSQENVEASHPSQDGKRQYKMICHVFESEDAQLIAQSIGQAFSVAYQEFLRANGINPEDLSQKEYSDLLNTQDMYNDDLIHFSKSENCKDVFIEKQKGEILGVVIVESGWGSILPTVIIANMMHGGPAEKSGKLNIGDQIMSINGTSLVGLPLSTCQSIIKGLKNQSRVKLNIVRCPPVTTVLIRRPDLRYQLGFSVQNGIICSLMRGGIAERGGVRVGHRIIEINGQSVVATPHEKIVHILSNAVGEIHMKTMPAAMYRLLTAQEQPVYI
T3 sequence (P02675 whole entry, the tested form may be a part): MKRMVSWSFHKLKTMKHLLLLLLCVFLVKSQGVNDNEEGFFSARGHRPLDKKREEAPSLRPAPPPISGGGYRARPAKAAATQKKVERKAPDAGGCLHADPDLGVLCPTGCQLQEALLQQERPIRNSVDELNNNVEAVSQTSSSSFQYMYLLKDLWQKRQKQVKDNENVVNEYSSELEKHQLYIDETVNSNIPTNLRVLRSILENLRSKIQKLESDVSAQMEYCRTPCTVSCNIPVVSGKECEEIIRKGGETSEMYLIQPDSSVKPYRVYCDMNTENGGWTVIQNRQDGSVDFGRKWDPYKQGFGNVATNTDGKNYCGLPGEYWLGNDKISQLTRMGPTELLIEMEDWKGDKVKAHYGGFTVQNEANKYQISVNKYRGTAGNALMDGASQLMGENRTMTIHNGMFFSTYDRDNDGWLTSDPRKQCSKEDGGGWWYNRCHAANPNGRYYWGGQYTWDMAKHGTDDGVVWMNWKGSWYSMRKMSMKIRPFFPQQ
Chain of Cytochrome P450 3A4 (P08684 whole entry): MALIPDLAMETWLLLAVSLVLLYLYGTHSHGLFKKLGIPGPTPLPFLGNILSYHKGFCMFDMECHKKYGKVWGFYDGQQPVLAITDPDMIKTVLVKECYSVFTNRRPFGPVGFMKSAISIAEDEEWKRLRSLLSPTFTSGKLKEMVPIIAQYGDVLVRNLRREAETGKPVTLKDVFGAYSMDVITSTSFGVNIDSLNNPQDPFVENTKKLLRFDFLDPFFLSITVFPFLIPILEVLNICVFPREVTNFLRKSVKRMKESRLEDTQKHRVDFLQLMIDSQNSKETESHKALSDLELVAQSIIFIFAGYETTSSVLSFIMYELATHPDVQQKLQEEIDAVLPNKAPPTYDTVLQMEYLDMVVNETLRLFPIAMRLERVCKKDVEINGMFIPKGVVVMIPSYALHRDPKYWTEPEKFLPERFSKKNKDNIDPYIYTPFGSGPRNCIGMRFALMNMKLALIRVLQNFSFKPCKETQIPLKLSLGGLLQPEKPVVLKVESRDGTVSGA
Chain of 26S proteasome non-ATPase regulatory subunit 14 (O00487 whole entry, the tested form may be a part): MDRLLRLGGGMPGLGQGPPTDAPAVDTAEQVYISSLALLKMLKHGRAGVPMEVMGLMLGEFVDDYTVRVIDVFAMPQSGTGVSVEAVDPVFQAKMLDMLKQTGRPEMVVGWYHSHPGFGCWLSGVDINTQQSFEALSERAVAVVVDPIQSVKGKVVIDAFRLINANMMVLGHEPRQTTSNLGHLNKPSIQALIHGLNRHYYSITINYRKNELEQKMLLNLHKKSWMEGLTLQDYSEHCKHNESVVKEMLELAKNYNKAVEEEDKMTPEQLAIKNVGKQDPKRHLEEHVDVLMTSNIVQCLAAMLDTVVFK
Chain of Estrogen receptor beta (Q92731 whole entry): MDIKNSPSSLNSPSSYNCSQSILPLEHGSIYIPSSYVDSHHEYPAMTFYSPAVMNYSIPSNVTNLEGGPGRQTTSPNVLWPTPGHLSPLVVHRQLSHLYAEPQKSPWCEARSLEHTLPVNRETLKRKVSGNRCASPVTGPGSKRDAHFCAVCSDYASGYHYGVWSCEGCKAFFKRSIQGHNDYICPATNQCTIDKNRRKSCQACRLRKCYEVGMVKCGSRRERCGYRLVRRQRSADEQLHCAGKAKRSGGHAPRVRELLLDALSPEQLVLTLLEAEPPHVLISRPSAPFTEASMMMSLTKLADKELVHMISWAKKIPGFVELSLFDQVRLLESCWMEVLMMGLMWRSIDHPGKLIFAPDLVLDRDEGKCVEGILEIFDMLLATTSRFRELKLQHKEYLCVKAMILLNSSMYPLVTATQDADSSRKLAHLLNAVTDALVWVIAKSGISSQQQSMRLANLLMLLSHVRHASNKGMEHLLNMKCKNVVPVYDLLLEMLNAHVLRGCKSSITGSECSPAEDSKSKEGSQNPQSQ

With `CSc1ccc(C2C(C#N)=C(N)Oc3c2ccc(=O)c2c(C)oc(C)c32)cc1` (centres undefined) the CC50 [1] was > 40 µM (active), the IC50 [2] was > 50 µM (not active) and the IC50 [3] was > 53.2 µM (active). For the same molecule, the IC50 [4] was > 50 µM (not active).

With `NS(=O)(=O)c1ccc(NS(=O)(=O)c2ccc(NC(=O)c3ccc(-c4ccccc4)cc3)cc2)cc1` the IC50 [5] was 33.4 µM (active), the IC50 [6] was > 100 µM (inactive) and the IC50 [7] was > 50 µM (inactive). For the same molecule, the IC50 [8] was 12.1 µM (active), the AC50 [9] was 0.562 µM (inconclusive) and the IC50 [10] was > 83.3 µM (inactive). The IC50 [11] was 6.71 µM (active), the IC50 [12] was 14.3 µM (inactive) and the AC50 [13] was “inconclusive”.

In the case of `CN(C)S(=O)(=O)c1ccc(NC(=O)N2CCN(c3cccc(C(F)(F)F)c3)CC2)cc1`, the CC50 [14] is reported as > 40 µM (active), the EC50 [15] is reported as > 60 µM (not active) and the EC50 [16] is reported as 3.61 µM (active).

For `COc1ccc2c(c1)c1c3n2CCN(C)C3=NCC1` [METRALINDOLE], the IC50 [17] was > 20 µM (inactive), the IC50 [18] was > 20 µM (inactive) and the IC50 [19] was > 20 µM (inactive). For the same molecule, the IC50 [20] was > 20 µM (inactive), the IC50 [21] was > 20 µM (inactive) and the IC50 [22] was > 20 µM (inactive). For the same molecule, the IC50 [23] was > 20 µM (inactive) and the IC50 [24] was > 20 µM (inactive).
